Experimental data from ChEMBL document CHEMBL5260833, “An overview of quinazolines: Pharmacological significance and recent developments” (Eur J Med Chem, 2018).
Values after ≈ are worked out from the molar mass of the structure shown. Values belong to the molecule of their own block, whether it stands above or below them.

Assays:
Escherichia coli [1] = assay: Antibacterial activity against Escherichia coli assessed as zone of inhibition at 100 ppm; format: functional; details: read-out: IZ
Staphylococcus aureus [2] = assay: Antibacterial activity against Staphylococcus aureus assessed as zone of inhibition at 100 ppm; format: functional; details: read-out: IZ
Staphylococcus aureus [3] = assay: Antimicrobial activity against Staphylococcus aureus assessed as bacterial growth inhibition; format: functional
Micrococcus luteus = assay: Antimicrobial activity against Micrococcus luteus assessed as bacterial growth inhibition; format: functional
[4] = tested on: Staphylococcus saprophyticus; assay: Antimicrobial activity against Staphylococcus saprophyticus assessed as bacterial growth inhibition; format: functional
[5] = tested on: Staphylococcus epidermidis; assay: Antimicrobial activity against Staphylococcus epidermidis assessed as bacterial growth inhibition; format: functional
Bacillus subtilis = assay: Antimicrobial activity against Bacillus subtilis assessed as bacterial growth inhibition; format: functional
Escherichia coli [6] = assay: Antimicrobial activity against Escherichia coli assessed as bacterial growth inhibition; format: functional
Klebsiella oxytoca = assay: Antimicrobial activity against Klebsiella oxytoca assessed as bacterial growth inhibition; format: functional
Proteus vulgaris = assay: Antimicrobial activity against Proteus vulgaris assessed as bacterial growth inhibition; format: functional
Proteus mirabilis = assay: Antimicrobial activity against Proteus mirabilis assessed as bacterial growth inhibition; format: functional
Citrobacter freundii = assay: Antimicrobial activity against Citrobacter freundii assessed as bacterial growth inhibition; format: functional
Pseudomonas aeruginosa = assay: Antimicrobial activity against Pseudomonas aeruginosa assessed as bacterial growth inhibition; format: functional
Candida albicans = assay: Antimicrobial activity against Candida albicans assessed as bacterial growth inhibition; format: functional
Mycolicibacterium phlei = assay: Antimicrobial activity against Mycobacterium phlei assessed as bacterial growth inhibition; format: functional
Homo sapiens [7] = organism: Homo sapiens; assay: Immunosuppressive activity in human T cell; format: functional, organism-based
Homo sapiens [8] = organism: Homo sapiens; assay: Immunosuppressive activity in human B cell; format: functional, organism-based
[9] = CNS toxicity in po dosed mouse assessed as depression in CNS; format: organism-based; details: in vivo
[10] = Antiviral activity against Gomphrena mosaic virus relative to control; format: functional, Gomphrena mosiac virus; set-up: concentration or dose not given beside the values
Rattus norvegicus = assay: Antiinflammatory activity in rat at assessed as reduction in paw edema at 200 mg/kg relative to control; format: functional
Mus musculus = assay: Analgesic activity in […] albino mouse at 20 mg/kg, po measured after 2 hrs by Tail-Flick technique relative to control; format: functional

Compound: COc1cc(/C=N/n2c(C)nc3ccc(I)cc3c2=O)cc(I)c1O
- zone of inhibition at 100 µg/mL (Escherichia coli [1]): 14 mm
- zone of inhibition at 100 µg/mL (Staphylococcus aureus [2]): 16 mm

Compound: O=c1c2ccc(Cl)cc2nc(/C=C/c2ccccc2[N+](=O)[O-])n1-c1ccc(O)cc1
- MIC (Staphylococcus aureus [3]): 125 µg/mL (≈ 298 µM)
- MIC (Micrococcus luteus): 125 µg/mL (≈ 298 µM)
- MIC [4]: 125 µg/mL (≈ 298 µM)
- MIC [5]: 125 µg/mL (≈ 298 µM)
- MIC (Bacillus subtilis): 125 µg/mL (≈ 298 µM)
- MIC (Escherichia coli [6]): 125 µg/mL (≈ 298 µM)
- MIC (Klebsiella oxytoca): 125 µg/mL (≈ 298 µM)
- MIC (Proteus vulgaris): 125 µg/mL (≈ 298 µM)
- MIC (Proteus mirabilis): 125 µg/mL (≈ 298 µM)
- MIC (Citrobacter freundii): 125 µg/mL (≈ 298 µM)
- MIC (Pseudomonas aeruginosa): 125 µg/mL (≈ 298 µM)
- MIC (Candida albicans): 125 µg/mL (≈ 298 µM)
- MIC (Mycolicibacterium phlei): 125 µg/mL (≈ 298 µM)

- IC50 (Homo sapiens [7]): 2300 nM
- IC50 (Homo sapiens [8]): 2930 nM
Compound: Nc1nc2c(c(=O)[nH]1)C[C@@H](CCc1ccc(C(=O)N[C@@H](C[C@H](F)C(=O)O)C(=O)O)cc1)CN2

- IC50 (Homo sapiens [7]): 1410 nM
- IC50 (Homo sapiens [8]): 2930 nM
Compound: Nc1nc(N)c2c(CCCc3ccc(C(=O)N[C@@H](C[C@@H](F)C(=O)O)C(=O)O)cc3)c[nH]c2n1

- MIC (Staphylococcus aureus [3]): 125 µg/mL (≈ 260 µM)
- MIC (Micrococcus luteus): 125 µg/mL (≈ 260 µM)
- MIC [4]: 125 µg/mL (≈ 260 µM)
- MIC [5]: 125 µg/mL (≈ 260 µM)
- MIC (Bacillus subtilis): 125 µg/mL (≈ 260 µM)
- MIC (Escherichia coli [6]): 125 µg/mL (≈ 260 µM)
- MIC (Klebsiella oxytoca): 125 µg/mL (≈ 260 µM)
- MIC (Proteus vulgaris): 125 µg/mL (≈ 260 µM)
- MIC (Proteus mirabilis): 125 µg/mL (≈ 260 µM)
- MIC (Citrobacter freundii): 125 µg/mL (≈ 260 µM)
- MIC (Pseudomonas aeruginosa): 125 µg/mL (≈ 260 µM)
- MIC (Candida albicans): 125 µg/mL (≈ 260 µM)
- MIC (Mycolicibacterium phlei): 125 µg/mL (≈ 260 µM)
Compound: CCOC(=O)Oc1ccc(-n2c(/C=C/c3ccc(Cl)cc3)nc3cc(Cl)ccc3c2=O)cc1

- MIC (Staphylococcus aureus [3]): 125 µg/mL (≈ 254 µM)
- MIC (Micrococcus luteus): 125 µg/mL (≈ 254 µM)
- MIC [4]: 125 µg/mL (≈ 254 µM)
- MIC [5]: 125 µg/mL (≈ 254 µM)
- MIC (Bacillus subtilis): 125 µg/mL (≈ 254 µM)
- MIC (Escherichia coli [6]): 125 µg/mL (≈ 254 µM)
- MIC (Klebsiella oxytoca): 125 µg/mL (≈ 254 µM)
- MIC (Proteus vulgaris): 125 µg/mL (≈ 254 µM)
- MIC (Proteus mirabilis): 125 µg/mL (≈ 254 µM)
- MIC (Citrobacter freundii): 125 µg/mL (≈ 254 µM)
- MIC (Pseudomonas aeruginosa): 125 µg/mL (≈ 254 µM)
- MIC (Candida albicans): 125 µg/mL (≈ 254 µM)
- MIC (Mycolicibacterium phlei): 125 µg/mL (≈ 254 µM)
Compound: CCOC(=O)Oc1ccc(-n2c(/C=C/c3ccc(Cl)cc3)nc3cc([N+](=O)[O-])ccc3c2=O)cc1

Compound: O=C(CO)Nc1ccc2nc(CF)n(-c3ccccc3CO)c(=O)c2c1
- LD50 [9]: > 1000 mg/kg

Compound: COc1ccc(N/N=C(C)/N=N/n2cnc3ccccc3c2=O)cc1
- Activity [10]: 15%

Compound: O=C(O)c1ccc(Cl)cc1-n1c(/C=C/c2ccc([N+](=O)[O-])cc2)nc2ccccc2c1=O
- inhibition in vivo at 200 mg/kg (Rattus norvegicus): 62.2%

Compound: O=C(O)c1cc(Br)ccc1-n1c(/C=C/c2ccc(O)cc2)nc2ccccc2c1=O
- inhibition in vivo at 200 mg/kg (Rattus norvegicus): 62.2%

Compound: CC(/N=N/n1cnc2ccccc2c1=O)=N\Nc1ccc(Cl)cc1
- Activity [10]: 15%

Compound: CCCCc1nc2ccccc2c(=O)n1NC(=S)N1CCCC1
- Activity (Mus musculus): 73%

- MIC (Staphylococcus aureus [3]): 125 µg/mL (≈ 263 µM)
- MIC (Micrococcus luteus): 125 µg/mL (≈ 263 µM)
- MIC [4]: 125 µg/mL (≈ 263 µM)
- MIC [5]: 125 µg/mL (≈ 263 µM)
- MIC (Bacillus subtilis): 125 µg/mL (≈ 263 µM)
- MIC (Escherichia coli [6]): 125 µg/mL (≈ 263 µM)
- MIC (Klebsiella oxytoca): 125 µg/mL (≈ 263 µM)
- MIC (Proteus vulgaris): 125 µg/mL (≈ 263 µM)
- MIC (Proteus mirabilis): 125 µg/mL (≈ 263 µM)
- MIC (Citrobacter freundii): 125 µg/mL (≈ 263 µM)
- MIC (Pseudomonas aeruginosa): 125 µg/mL (≈ 263 µM)
- MIC (Candida albicans): 125 µg/mL (≈ 263 µM)
- MIC (Mycolicibacterium phlei): 125 µg/mL (≈ 263 µM)
Compound: O=c1c2ccc(Cl)cc2nc(/C=C/c2ccccc2[N+](=O)[O-])n1-c1ccc(OCC2CO2)cc1 (stereo not given)

Compound: O=C(O)c1cc(Br)ccc1-n1c(/C=C/c2ccc([N+](=O)[O-])cc2)nc2ccccc2c1=O
- inhibition in vivo at 200 mg/kg (Rattus norvegicus): 62.2%
